The values that follow come from PubChem BioAssay (NCI).

Test systems include OVCAR-4 ovarian; UACC-62 melanoma; UACC-257 melanoma; NCI-H226 lung; KM12 colon; SF-268 CNS; A498 renal; MALME-3M melanoma; HCT-116 colon; SF-539 CNS.
Holding throughout (assay): NCI anticancer screen, dose series, 48 h

“And” between values parts separate entries of the source, which are not always exact repeats. Equal values may be shown once.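 Grown in 96-well plates, cells were treated for 48 hours with each compound at five concentrations. Insufficient inhibition: endpoint recorded as highest concentration tested. The concentration for 50% growth inhibition is given as GI50. TGI is the concentration that stops growth completely.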 Where a SMILES comes first, the peptide text is derived from it. [ ]: non-standard residue; d: D form. The star is where a group is joined. Bn2Val = CC(C)[C@@H](C(=O)*)N(Cc1ccccc1)Cc1ccccc1; NH(3,4-diMeO-benzyl) = COc1ccc(CN*)cc1OC; NMeV = CN[C@H](C(=O)O)C(C)C; dNMeA = CN[C@H](C)C(=O)O

`ClCc1ccccc1CSc1ncnc2nc[nH]c12`: the GI50 in the test on OVCAR-4 ovarian, in the test with UACC-62 melanoma, in the test on UACC-257 melanoma, in the test on NCI-H226 lung, in the test with KM12 colon and in the test with SF-268 CNS was over 60 µM each time. Further, the GI50 was 54.1 µM with A498 renal, over 60 µM in the test on MALME-3M melanoma, over 60 µM in the test on HCT-116 colon and over 60 µM in the test with SF-539 CNS. In addition, the TGI in the test with OVCAR-4 ovarian, in the test with UACC-62 melanoma, with UACC-257 melanoma, in the test with NCI-H226 lung, in the test with KM12 colon and with SF-268 CNS was over 60 µM throughout. Moreover, the TGI in the test on A498 renal, with MALME-3M melanoma, in the test on HCT-116 colon and with SF-539 CNS was over 60 µM each time.

As for `CC1=C2[C@@H](CC1)[C@]1(C)O[C@@](C(C)C)(C[C@H]1OC(=O)[C@H](C)O)[C@H]2OC(=O)/C=C/c1ccccc1`, the GI50 with OVCAR-4 ovarian was 10.3 µM; in the test with UACC-62 melanoma it was 12.2 µM; in the test with UACC-257 melanoma, 17 µM; with NCI-H226 lung it was 12.9 µM; with KM12 colon, 14.8 µM; in the test on SF-268 CNS, 2.13 µM. Further, the GI50 is 0.236 µM with A498 renal, 14.9 µM in the test on MALME-3M melanoma, 13.4 µM with HCT-116 colon and 15 µM in the test on SF-539 CNS. Further, the TGI was found to be 24.9 µM in the test with OVCAR-4 ovarian; 27.4 µM with UACC-62 melanoma; 34.1 µM in the test with UACC-257 melanoma; 29.6 µM with NCI-H226 lung; 33 µM in the test with KM12 colon; 23.1 µM with SF-268 CNS. For the same compound, the TGI is 0.702 µM in the test with A498 renal, 31.6 µM in the test on MALME-3M melanoma, 29.2 µM in the test with HCT-116 colon and 30.9 µM in the test on SF-539 CNS.

As to `CN1CCN(Cc2ccc(NC(=O)c3cncc(C#Cc4cnc(N)c5ccccc45)c3)cc2C(F)(F)F)CC1`, the GI50 in the test on OVCAR-4 ovarian was 0.117 µM; in the test on UACC-62 melanoma, 0.587 µM; with UACC-257 melanoma, 0.605 µM; with NCI-H226 lung, 0.393 µM; with KM12 colon it was 0.0148 µM; with SF-268 CNS, 0.321 µM. The GI50 with A498 renal is 0.299 µM; in the test with MALME-3M melanoma it was 0.315 µM; in the test on HCT-116 colon it was 0.16 µM; in the test on SF-539 CNS, 0.38 µM. Further, the TGI in the test on OVCAR-4 ovarian worked out at 0.738 µM; with UACC-62 melanoma, 1.16 µM; in the test with UACC-257 melanoma it was 1.27 µM; in the test on NCI-H226 lung, 1.13 µM; in the test with KM12 colon, 0.43 µM; in the test with SF-268 CNS, 0.832 µM. For the same compound, the TGI with A498 renal came to 1.14 µM; with MALME-3M melanoma, 0.774 µM; in the test on HCT-116 colon it was 0.581 µM; with SF-539 CNS, 0.792 µM.

For the compound `NS(=O)(=O)c1ccc(-n2nc(-c3ccc(Br)cc3)ccc2=O)cc1`, the GI50 in the test with OVCAR-4 ovarian, with UACC-62 melanoma, in the test with UACC-257 melanoma, in the test on NCI-H226 lung, in the test on KM12 colon and with SF-268 CNS was over 10 µM throughout. The GI50 was over 10 µM in the test on A498 renal, 7.71 µM with MALME-3M melanoma, over 10 µM in the test with HCT-116 colon and over 10 µM in the test with SF-539 CNS. The TGI with OVCAR-4 ovarian, in the test on UACC-62 melanoma, in the test with UACC-257 melanoma, in the test on NCI-H226 lung, in the test with KM12 colon and in the test on SF-268 CNS was over 10 µM each time. For the same compound, the TGI in the test on A498 renal, in the test on MALME-3M melanoma, in the test with HCT-116 colon and with SF-539 CNS was over 10 µM each time.

Turning to `COc1ccc(CNC(=O)[C@@H](C)N(C)C(=O)[C@@H]2CCCN2C(=O)[C@H](C(C)C)N(C)C(=O)[C@@H](NC(=O)[C@H](C(C)C)N(Cc2ccccc2)Cc2ccccc2)C(C)C)cc1OC` (Bn2Val-V[NMeV]P[dNMeA]-{NH(3,4-diMeO-benzyl)}), the GI50 in the test with OVCAR-4 ovarian was 7.54 µM; in the test with UACC-62 melanoma, 13.5 µM; in the test on UACC-257 melanoma, 10.2 µM; in the test with NCI-H226 lung, 13.7 µM; with SF-268 CNS, 17.6 µM; in the test with MALME-3M melanoma it was 14.8 µM. Also, the results for the GI50 with HCT-116 colon and in the test with SF-539 CNS were 4.87 µM and 5.23 µM, respectively. Also, the TGI was 50 µM and 42.2 µM in the test with OVCAR-4 ovarian; 14 µM and 27.2 µM in the test on UACC-62 melanoma; 21.8 µM and 23.5 µM in the test on UACC-257 melanoma; 15.3 µM and 31.3 µM with NCI-H226 lung; 30 µM and 27.4 µM in the test with KM12 colon; 14.8 µM and > 100 µM with SF-268 CNS. Further, the TGI was 23.7 µM with A498 renal; 15.6 µM and 31.9 µM in the test on MALME-3M melanoma; 14.4 µM and 17.7 µM in the test with HCT-116 colon; 16.6 µM and 17.8 µM in the test with SF-539 CNS.

For `O=C(Nc1ccccc1[N+](=O)[O-])c1ccccc1`, the TGI in the test with OVCAR-4 ovarian, in the test with UACC-62 melanoma, with UACC-257 melanoma, in the test on NCI-H226 lung, with KM12 colon and with SF-268 CNS was over 100 µM throughout. The TGI in the test on A498 renal, in the test on MALME-3M melanoma, with HCT-116 colon and in the test on SF-539 CNS was over 100 µM in each case.

In the case of `O=[n+]1c(CBr)c(CBr)n([O-])c2ccccc21`, the GI50 with OVCAR-4 ovarian was 6.81 µM; in the test with UACC-62 melanoma, 14.1 µM; with UACC-257 melanoma it was 13.6 µM; with NCI-H226 lung, 11.7 µM; in the test with KM12 colon it was 17.1 µM; with SF-268 CNS it was 15.9 µM. Moreover, the GI50 was 41.3 µM in the test with A498 renal, 1.47 µM with MALME-3M melanoma, 3.94 µM in the test with HCT-116 colon and 13.3 µM in the test with SF-539 CNS. Moreover, the TGI with OVCAR-4 ovarian is 20.4 µM; in the test on UACC-62 melanoma, 27.4 µM; with UACC-257 melanoma, 27.6 µM; with NCI-H226 lung it was 30.7 µM; in the test with KM12 colon it was 31.5 µM; in the test with SF-268 CNS, 33.6 µM. The TGI with A498 renal is over 100 µM; in the test on MALME-3M melanoma, 3.15 µM; in the test with HCT-116 colon, 14.5 µM; with SF-539 CNS, 26.3 µM.

`COc1ccc(/C=C(/C(=O)O)c2cc(OC)c(OC)c(OC)c2)cc1`: the TGI in the test with OVCAR-4 ovarian, in the test with UACC-62 melanoma, with UACC-257 melanoma, in the test with NCI-H226 lung, in the test on KM12 colon and with SF-268 CNS was over 100 µM in each case. The TGI in the test on A498 renal was over 100 µM; in the test with MALME-3M melanoma, over 100 µM; in the test on HCT-116 colon it was over 100 µM; in the test with SF-539 CNS, 51.2 µM.
